Experimental data reported in publication PMC4832243, “Discovery of Potent VEGFR-2 Inhibitors based on Furopyrimidine and Thienopyrimidne Scaffolds as Cancer Targeting Agents” (Scientific Reports, 2016).

Tests used:
[1] = tested on: NCI-H226; test: NCI 60 cell line panel (SRB), NCI-H226; format: cell-based; conditions: Homo sapiens; NCI-H226, Non-Small Cell Lung Cancer; single dose of 10 μM; read-out: Cell Growth Percent
[2] = tested on: SN12C; test: NCI 60 cell line panel (SRB), SN12C; format: cell-based; conditions: Homo sapiens, Renal Cancer, single dose of 10 μM, read-out: Cell Growth Percent
[3] = tested on: ACHN; test: NCI 60 cell line panel (SRB), ACHN; format: cell-based; conditions: Homo sapiens, Renal Cancer, single dose of 10 μM, read-out: Cell Growth Percent
[4] = tested on: HL-60(TB); test: NCI 60 cell line panel (SRB), HL-60(TB); format: cell-based; conditions: Homo sapiens, Leukemia, single dose of 10 μM, read-out: Cell Growth Percent
[5] = tested on: TK-10; test: NCI 60 cell line panel (SRB), TK-10; format: cell-based; conditions: Homo sapiens; TK-10, Renal Cancer; single dose of 10 μM; read-out: Cell Growth Percent
[6] = tested on: HCT-15; test: NCI 60 cell line panel (SRB), HCT-15; format: cell-based; conditions: Homo sapiens; HCT-15, Colon Cancer; single dose of 10 μM; read-out: Cell Growth Percent
[7] = tested on: EKVX; test: NCI 60 cell line panel (SRB), EKVX; format: cell-based; conditions: Homo sapiens, Non-Small Cell Lung Cancer, single dose of 10 μM, read-out: Cell Growth Percent
[8] = tested on: SK-MEL-2; test: NCI 60 cell line panel (SRB), SK-MEL-2; format: cell-based; conditions: Homo sapiens; SK-MEL-2, Melanoma; single dose of 10 μM; read-out: Cell Growth Percent
[9] = tested on: MCF7; test: NCI 60 cell line panel (SRB), MCF7; format: cell-based; conditions: Homo sapiens; MCF7, Breast Cancer; single dose of 10 μM; read-out: Cell Growth Percent
[10] = tested on: HCC-2998; test: NCI 60 cell line panel (SRB), HCC-2998; format: cell-based; conditions: Homo sapiens; HCC-2998, Colon Cancer; single dose of 10 μM; read-out: Cell Growth Percent
[11] = target: T1, VEGFR-2 (KDR) (Homo sapiens, UniProt P35968); test: In vitro VEGFR-2 tyrosine kinase activity (Kinase-Glo Plus luminescence, BPS Bioscience); format: biochemical; conditions: single dose concentration of 10 μM
T1 construct: purchased BPS Bioscience 40301

[12] = tested on: SF-539; test: NCI 60 cell line panel (SRB), SF-539; format: cell-based; conditions: Homo sapiens; SF-539, CNS Cancer; single dose of 10 μM; read-out: Cell Growth Percent
[13] = tested on: UACC-62; test: NCI 60 cell line panel (SRB), UACC-62; format: cell-based; conditions: Homo sapiens; UACC-62, Melanoma; single dose of 10 μM; read-out: Cell Growth Percent
[14] = tested on: UACC-257; test: NCI 60 cell line panel (SRB), UACC-257; format: cell-based; conditions: Homo sapiens; UACC-257, Melanoma; single dose of 10 μM; read-out: Cell Growth Percent
[15] = tested on: SF-295; test: NCI 60 cell line panel (SRB), SF-295; format: cell-based; conditions: Homo sapiens; SF-295, CNS Cancer; single dose of 10 μM; read-out: Cell Growth Percent
[16] = tested on: M14; test: NCI 60 cell line panel (SRB), M14; format: cell-based; conditions: Homo sapiens; M14, Melanoma; single dose of 10 μM; read-out: Cell Growth Percent
[17] = tested on: SK-OV-3; test: NCI 60 cell line panel (SRB), SK-OV-3; format: cell-based; conditions: Homo sapiens; SK-OV-3, Ovarian Cancer; single dose of 10 μM; read-out: Cell Growth Percent
[18] = tested on: MDA-MB-231/ATCC; test: NCI 60 cell line panel (SRB), MDA-MB-231/ATCC; format: cell-based; conditions: Homo sapiens, Breast Cancer, single dose of 10 μM, read-out: Cell Growth Percent
[19] = tested on: SR; test: NCI 60 cell line panel (SRB), SR; format: cell-based; conditions: Homo sapiens, Leukemia, single dose of 10 μM, read-out: Cell Growth Percent
[20] = tested on: NCI/ADR-RES; test: NCI 60 cell line panel (SRB), NCI/ADR-RES; format: cell-based; conditions: Homo sapiens, Ovarian Cancer, single dose of 10 μM, read-out: Cell Growth Percent
[21] = tested on: OVCAR-8; test: NCI 60 cell line panel (SRB), OVCAR-8; format: cell-based; conditions: Homo sapiens; OVCAR-8, Ovarian Cancer; single dose of 10 μM; read-out: Cell Growth Percent
[22] = tested on: HS 578T; test: NCI 60 cell line panel (SRB), HS 578T; format: cell-based; conditions: Homo sapiens, Breast Cancer, single dose of 10 μM, read-out: Cell Growth Percent
[23] = tested on: SNB-75; test: NCI 60 cell line panel (SRB), SNB-75; format: cell-based; conditions: Homo sapiens; SNB-75, CNS Cancer; single dose of 10 μM; read-out: Cell Growth Percent
[24] = tested on: MDA-MB-435; test: NCI 60 cell line panel (SRB), MDA-MB-435; format: cell-based; conditions: Homo sapiens; MDA-MB-435, Melanoma; single dose of 10 μM; read-out: Cell Growth Percent

T1 sequence (P35968 20-1356): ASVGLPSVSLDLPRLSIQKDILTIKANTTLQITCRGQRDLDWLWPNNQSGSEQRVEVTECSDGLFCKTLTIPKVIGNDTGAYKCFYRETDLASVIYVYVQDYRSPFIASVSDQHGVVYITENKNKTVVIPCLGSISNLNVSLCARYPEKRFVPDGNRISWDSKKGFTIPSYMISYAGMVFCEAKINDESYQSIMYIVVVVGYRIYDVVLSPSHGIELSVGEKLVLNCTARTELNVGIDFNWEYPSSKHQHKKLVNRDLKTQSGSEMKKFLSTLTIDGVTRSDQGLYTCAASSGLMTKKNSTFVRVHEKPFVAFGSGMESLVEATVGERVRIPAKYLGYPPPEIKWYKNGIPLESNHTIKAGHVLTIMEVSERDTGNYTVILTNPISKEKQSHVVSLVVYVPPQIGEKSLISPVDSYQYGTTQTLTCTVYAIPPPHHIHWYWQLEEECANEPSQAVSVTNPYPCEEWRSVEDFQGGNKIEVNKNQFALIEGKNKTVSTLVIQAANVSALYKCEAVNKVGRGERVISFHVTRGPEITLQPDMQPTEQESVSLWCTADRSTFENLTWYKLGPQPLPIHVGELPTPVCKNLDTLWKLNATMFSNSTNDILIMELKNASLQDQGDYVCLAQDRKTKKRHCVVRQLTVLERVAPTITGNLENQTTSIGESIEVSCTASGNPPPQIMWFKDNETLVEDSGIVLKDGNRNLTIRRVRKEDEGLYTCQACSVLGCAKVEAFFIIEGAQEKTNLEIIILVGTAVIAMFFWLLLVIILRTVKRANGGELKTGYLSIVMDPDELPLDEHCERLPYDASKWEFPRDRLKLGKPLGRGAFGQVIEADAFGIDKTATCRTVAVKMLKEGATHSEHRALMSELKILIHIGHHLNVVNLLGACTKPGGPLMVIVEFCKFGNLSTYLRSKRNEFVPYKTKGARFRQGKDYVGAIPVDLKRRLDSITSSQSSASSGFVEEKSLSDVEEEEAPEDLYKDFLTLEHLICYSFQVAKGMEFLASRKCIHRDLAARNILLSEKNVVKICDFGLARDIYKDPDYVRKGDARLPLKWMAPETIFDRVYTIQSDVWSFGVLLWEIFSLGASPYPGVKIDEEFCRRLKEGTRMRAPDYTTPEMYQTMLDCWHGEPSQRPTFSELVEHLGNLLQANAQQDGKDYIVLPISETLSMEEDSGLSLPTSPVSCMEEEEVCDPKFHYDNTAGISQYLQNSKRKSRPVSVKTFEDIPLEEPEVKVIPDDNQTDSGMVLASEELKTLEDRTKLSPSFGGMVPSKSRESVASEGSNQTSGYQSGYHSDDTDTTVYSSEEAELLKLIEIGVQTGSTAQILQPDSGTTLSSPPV

Structure (SMILES)	activity at 10 µM [1]	activity at 10 µM [2]	activity at 10 µM [3]	activity at 10 µM [4]	activity at 10 µM [5]	activity at 10 µM [6]	activity at 10 µM [7]	activity at 10 µM [8]	activity at 10 µM [9]	activity at 10 µM [10]	inhibition at 10 µM [11]	activity at 10 µM [12]	activity at 10 µM [13]	activity at 10 µM [14]	activity at 10 µM [15]	activity at 10 µM [16]	activity at 10 µM [17]	activity at 10 µM [18]	activity at 10 µM [19]	activity at 10 µM [20]	further results
CCOC(=O)c1c(C)oc2ncnc(Nc3ccc(NC(=O)Nc4ccc(CC)cc4)cc3)c12 [Compound 15i]	104%	107%	98.8%	103%	112%	105%	102%	120%	94.9%	114%	23%	89%	108%	111%	109%	99.9%	88.2%	94.6%	81.6%	97.2%	melting point: 242 to 246 °C; activity at 10 µM [21]: 112%; activity at 10 µM [22]: 97.7%; activity at 10 µM [23]: 80.5%; activity at 10 µM [24]: 102%
O=C(Nc1ccccc1)Nc1ccc(Nc2ncnc3sc4c(c23)CCCC4)cc1 [Compound 20a]	89.8%	99.2%	101%	97%	124%	110%	102%	114%	96.2%	95.3%	39%	104%	97.8%	93.5%	102%	103%	99.5%	91.6%	97.8%	107%	activity at 10 µM [21]: 107%; activity at 10 µM [22]: 85.3%; activity at 10 µM [23]: 93.3%; activity at 10 µM [24]: 112%
COc1cccc(NC(=O)Nc2ccc(Nc3ncnc4sc5c(c34)CCCC5)cc2)c1 [Compound 20c]	90.1%	91%	92%	91.1%	129%	97.8%	89.6%	116%	86.2%	118%	67%	60.2%	106%	94.9%	99%	89.8%	88.4%	89%	84.6%	106%	melting point: 206 to 210 °C; activity at 10 µM [21]: 113%; activity at 10 µM [22]: 74.4%; activity at 10 µM [23]: 62.7%; activity at 10 µM [24]: 98.5%
O=C(Nc1ccc(Nc2ncnc3sc4c(c23)CCCC4)cc1)Nc1cccc(Cl)c1 [Compound 20d]	103%	102%	99.7%	98.9%	108%	104%	96.9%	116%	91.9%	103%	19%	90.8%	106%	93.8%	96.8%	99.3%	98.6%	101%	102%	113%	activity at 10 µM [21]: 112%; activity at 10 µM [22]: 103%; activity at 10 µM [23]: 94.4%; activity at 10 µM [24]: 104%
